Values of other authors in PubChem BioAssay AID1259409 (Chemical Carcinogenesis Research Information System (CCRIS), 2018).

Test system: rodent chemically induced tumor inhibition, incidence and multiplicity
Experiment: CCRIS tumor inhibitor studies
Settings: Carcinogen: CYCLOPHOSPHAMIDE, 50-18-0, Route [Inhibitor]: ORAL, Species: RAT, Strain/Sex: SPRAGUE-DAWLEY/MALE, Promoter: NONE USED

O=S(=O)(O)CCSSCCS(=O)(=O)O
tumour outcome (control, treated, inhibition, significance) (Dose [Inhibitor]: 12 MG/KG BW IN DRINKING WATER 5/WK FOR 20 MO SIMULTANEOUSLY WITH CARCINOGEN TREATMENT (STUDY DURATION: 20 MO), Target Tissue: Type of Lesion: NERVOUS TISSUE: NEOPLASM, Dose [Carcinogen]: 2.5 MG/KG BW IN DRINKING WATER 5/WK FOR 20 MO): 14%, 15%, -7%, not calculated | tumour outcome (control, treated, inhibition, significance) (Dose [Inhibitor]: 12 MG/KG BW IN DRINKING WATER 5/WK FOR 20 MO SIMULTANEOUSLY WITH CARCINOGEN TREATMENT (STUDY DURATION: 20 MO), Target Tissue: Type of Lesion: URINARY BLADDER: TUMOR, Dose [Carcinogen]: 2.5 MG/KG BW IN DRINKING WATER 5/WK FOR 20 MO): 30%, 12%, 60%, p>0.0005* | tumour outcome (control, treated, inhibition, significance) (Dose [Inhibitor]: 12 MG/KG BW IN DRINKING WATER 5/WK FOR DURATION OF STUDY SIMULTANEOUSLY WITH CARCINOGEN TREATMENT (STUDY DURATION: LIFE), Target Tissue: Type of Lesion: URINARY BLADDER: PAPILLOMA, CARCINOMA, Dose [Carcinogen]: 2.5 MG/KG BW IN DRINKING WATER 5/WK FOR DURATION OF STUDY): 32/100 (32%), 7/50 (14%), 56%, p<0.00005* | tumour outcome (control, treated, inhibition, significance) (Dose [Inhibitor]: 35 MG/KG BW IN DRINKING WATER 5/WK FOR 20 MO SIMULTANEOUSLY WITH CARCINOGEN TREATMENT (STUDY DURATION: 20 MO), Target Tissue: Type of Lesion: NERVOUS TISSUE: NEOPLASM, Dose [Carcinogen]: 2.5 MG/KG BW IN DRINKING WATER 5/WK FOR 20 MO): 14%, 15%, -7%, not calculated | tumour outcome (control, treated, inhibition, significance) (Dose [Inhibitor]: 35 MG/KG BW IN DRINKING WATER 5/WK FOR 20 MO SIMULTANEOUSLY WITH CARCINOGEN TREATMENT (STUDY DURATION: 20 MO), Target Tissue: Type of Lesion: URINARY BLADDER: TUMOR, Dose [Carcinogen]: 2.5 MG/KG BW IN DRINKING WATER 5/WK FOR 20 MO): 30%, 6%, 80%, p>0.0005* | tumour outcome (control, treated, inhibition, significance) (Dose [Inhibitor]: 35 MG/KG BW IN DRINKING WATER 5/WK FOR DURATION OF STUDY SIMULTANEOUSLY WITH CARCINOGEN TREATMENT (STUDY DURATION: LIFE), Target Tissue: Type of Lesion: URINARY BLADDER: PAPILLOMA, CARCINOMA, Dose [Carcinogen]: 2.5 MG/KG BW IN DRINKING WATER 5/WK FOR DURATION OF STUDY): 32/100 (32%), 3/50 (6%), 81%, p<0.00005*
